Source: article PMC10288926 (Journal of Enzyme Inhibition and Medicinal Chemistry, 2023)
Like-named read-outs stand apart in the source and are kept apart here.

Key:
[1] = target: ROS1 (Homo sapiens, UniProt P08922); assay: HTRF KinEASE-TK kinase inhibitory assay, ROS1; format: biochemical; conditions: for inhibition at 1 µM: read-out: ROS1 Inhibition (1μM); for ROS1 Inhibition (1μM): kinase inhibition % at 1 μM
[2] = target: c-MET (Homo sapiens, UniProt P08581); assay: HTRF kinase inhibitory assay, c-MET; format: biochemical; conditions: for inhibition at 1 µM: read-out: c-MET Inhibition (1μM); for c-MET Inhibition (1μM): kinase inhibition % at 1 μM
[3] = target: ALK^WT (Homo sapiens, UniProt Q9UM73); assay: HTRF KinEASE-TK kinase inhibitory assay, ALK wild type; format: biochemical; conditions: for inhibition at 1 µM: read-out: ALK Inhibition (1μM); for ALK Inhibition (1μM): kinase inhibition % at 1 μM
[4] = tested on: HCC-78 cell line harbouring SLC34A2-ROS1 fusion; assay: Antiproliferative MTT assay, HCC-78; format: cell-based, human; conditions: read-out: Cellular IC50 (μM) HCC-78
[5] = tested on: NCI-H3122 cell line harbouring EML4-ALK fusion; assay: Antiproliferative MTT assay, NCI-H3122; format: cell-based, human; conditions: read-out: Cellular IC50 (μM) NCI-H3122
[6] = read-out: ROS1 IC50, average of two independent experiments
[7] = MTT, 72 h, mean of at least three independent experiments
[8] = average of two independent experiments

ALK^WT, sequence (Q9UM73 19-1620): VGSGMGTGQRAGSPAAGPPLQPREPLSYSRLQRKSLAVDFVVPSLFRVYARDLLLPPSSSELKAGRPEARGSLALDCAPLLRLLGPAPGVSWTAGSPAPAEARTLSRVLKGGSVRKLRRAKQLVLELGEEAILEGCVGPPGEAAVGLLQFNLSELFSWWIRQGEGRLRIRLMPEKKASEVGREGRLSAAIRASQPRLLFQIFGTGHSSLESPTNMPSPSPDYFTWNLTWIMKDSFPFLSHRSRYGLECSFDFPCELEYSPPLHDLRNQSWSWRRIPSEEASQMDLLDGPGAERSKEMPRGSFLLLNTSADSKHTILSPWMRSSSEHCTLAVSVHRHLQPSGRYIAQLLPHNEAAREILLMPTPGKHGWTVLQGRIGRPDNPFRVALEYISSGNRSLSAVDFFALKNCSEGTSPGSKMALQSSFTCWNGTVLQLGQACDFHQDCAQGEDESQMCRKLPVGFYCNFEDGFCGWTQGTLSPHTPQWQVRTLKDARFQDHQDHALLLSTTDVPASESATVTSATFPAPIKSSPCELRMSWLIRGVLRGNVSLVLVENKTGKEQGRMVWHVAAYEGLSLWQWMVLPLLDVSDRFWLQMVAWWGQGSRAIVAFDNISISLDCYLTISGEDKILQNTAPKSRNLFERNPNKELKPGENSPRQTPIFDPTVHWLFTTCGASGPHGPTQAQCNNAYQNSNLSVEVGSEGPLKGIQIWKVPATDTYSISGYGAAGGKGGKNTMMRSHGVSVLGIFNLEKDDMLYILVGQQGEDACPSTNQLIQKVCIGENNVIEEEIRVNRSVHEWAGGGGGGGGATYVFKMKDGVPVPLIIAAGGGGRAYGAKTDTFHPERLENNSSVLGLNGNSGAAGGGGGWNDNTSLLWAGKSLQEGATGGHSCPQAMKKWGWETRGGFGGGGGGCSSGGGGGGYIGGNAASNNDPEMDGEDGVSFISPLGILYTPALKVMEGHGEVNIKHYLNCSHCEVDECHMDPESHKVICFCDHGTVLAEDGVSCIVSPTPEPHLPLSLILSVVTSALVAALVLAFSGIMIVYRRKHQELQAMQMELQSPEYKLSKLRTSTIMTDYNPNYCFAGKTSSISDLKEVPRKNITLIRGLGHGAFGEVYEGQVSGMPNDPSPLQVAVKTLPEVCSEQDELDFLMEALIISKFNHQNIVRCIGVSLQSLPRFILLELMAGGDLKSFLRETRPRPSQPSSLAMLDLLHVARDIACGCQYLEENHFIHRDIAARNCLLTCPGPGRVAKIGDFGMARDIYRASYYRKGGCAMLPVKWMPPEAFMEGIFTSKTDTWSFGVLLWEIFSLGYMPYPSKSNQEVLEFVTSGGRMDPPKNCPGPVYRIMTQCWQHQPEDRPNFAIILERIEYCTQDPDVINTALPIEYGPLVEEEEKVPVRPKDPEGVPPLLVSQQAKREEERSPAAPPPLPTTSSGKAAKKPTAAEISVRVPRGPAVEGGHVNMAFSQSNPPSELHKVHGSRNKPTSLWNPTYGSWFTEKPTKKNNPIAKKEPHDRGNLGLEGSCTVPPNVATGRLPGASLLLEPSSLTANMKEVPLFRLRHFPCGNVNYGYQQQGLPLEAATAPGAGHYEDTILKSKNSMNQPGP
ROS1, sequence (P08922 28-2347): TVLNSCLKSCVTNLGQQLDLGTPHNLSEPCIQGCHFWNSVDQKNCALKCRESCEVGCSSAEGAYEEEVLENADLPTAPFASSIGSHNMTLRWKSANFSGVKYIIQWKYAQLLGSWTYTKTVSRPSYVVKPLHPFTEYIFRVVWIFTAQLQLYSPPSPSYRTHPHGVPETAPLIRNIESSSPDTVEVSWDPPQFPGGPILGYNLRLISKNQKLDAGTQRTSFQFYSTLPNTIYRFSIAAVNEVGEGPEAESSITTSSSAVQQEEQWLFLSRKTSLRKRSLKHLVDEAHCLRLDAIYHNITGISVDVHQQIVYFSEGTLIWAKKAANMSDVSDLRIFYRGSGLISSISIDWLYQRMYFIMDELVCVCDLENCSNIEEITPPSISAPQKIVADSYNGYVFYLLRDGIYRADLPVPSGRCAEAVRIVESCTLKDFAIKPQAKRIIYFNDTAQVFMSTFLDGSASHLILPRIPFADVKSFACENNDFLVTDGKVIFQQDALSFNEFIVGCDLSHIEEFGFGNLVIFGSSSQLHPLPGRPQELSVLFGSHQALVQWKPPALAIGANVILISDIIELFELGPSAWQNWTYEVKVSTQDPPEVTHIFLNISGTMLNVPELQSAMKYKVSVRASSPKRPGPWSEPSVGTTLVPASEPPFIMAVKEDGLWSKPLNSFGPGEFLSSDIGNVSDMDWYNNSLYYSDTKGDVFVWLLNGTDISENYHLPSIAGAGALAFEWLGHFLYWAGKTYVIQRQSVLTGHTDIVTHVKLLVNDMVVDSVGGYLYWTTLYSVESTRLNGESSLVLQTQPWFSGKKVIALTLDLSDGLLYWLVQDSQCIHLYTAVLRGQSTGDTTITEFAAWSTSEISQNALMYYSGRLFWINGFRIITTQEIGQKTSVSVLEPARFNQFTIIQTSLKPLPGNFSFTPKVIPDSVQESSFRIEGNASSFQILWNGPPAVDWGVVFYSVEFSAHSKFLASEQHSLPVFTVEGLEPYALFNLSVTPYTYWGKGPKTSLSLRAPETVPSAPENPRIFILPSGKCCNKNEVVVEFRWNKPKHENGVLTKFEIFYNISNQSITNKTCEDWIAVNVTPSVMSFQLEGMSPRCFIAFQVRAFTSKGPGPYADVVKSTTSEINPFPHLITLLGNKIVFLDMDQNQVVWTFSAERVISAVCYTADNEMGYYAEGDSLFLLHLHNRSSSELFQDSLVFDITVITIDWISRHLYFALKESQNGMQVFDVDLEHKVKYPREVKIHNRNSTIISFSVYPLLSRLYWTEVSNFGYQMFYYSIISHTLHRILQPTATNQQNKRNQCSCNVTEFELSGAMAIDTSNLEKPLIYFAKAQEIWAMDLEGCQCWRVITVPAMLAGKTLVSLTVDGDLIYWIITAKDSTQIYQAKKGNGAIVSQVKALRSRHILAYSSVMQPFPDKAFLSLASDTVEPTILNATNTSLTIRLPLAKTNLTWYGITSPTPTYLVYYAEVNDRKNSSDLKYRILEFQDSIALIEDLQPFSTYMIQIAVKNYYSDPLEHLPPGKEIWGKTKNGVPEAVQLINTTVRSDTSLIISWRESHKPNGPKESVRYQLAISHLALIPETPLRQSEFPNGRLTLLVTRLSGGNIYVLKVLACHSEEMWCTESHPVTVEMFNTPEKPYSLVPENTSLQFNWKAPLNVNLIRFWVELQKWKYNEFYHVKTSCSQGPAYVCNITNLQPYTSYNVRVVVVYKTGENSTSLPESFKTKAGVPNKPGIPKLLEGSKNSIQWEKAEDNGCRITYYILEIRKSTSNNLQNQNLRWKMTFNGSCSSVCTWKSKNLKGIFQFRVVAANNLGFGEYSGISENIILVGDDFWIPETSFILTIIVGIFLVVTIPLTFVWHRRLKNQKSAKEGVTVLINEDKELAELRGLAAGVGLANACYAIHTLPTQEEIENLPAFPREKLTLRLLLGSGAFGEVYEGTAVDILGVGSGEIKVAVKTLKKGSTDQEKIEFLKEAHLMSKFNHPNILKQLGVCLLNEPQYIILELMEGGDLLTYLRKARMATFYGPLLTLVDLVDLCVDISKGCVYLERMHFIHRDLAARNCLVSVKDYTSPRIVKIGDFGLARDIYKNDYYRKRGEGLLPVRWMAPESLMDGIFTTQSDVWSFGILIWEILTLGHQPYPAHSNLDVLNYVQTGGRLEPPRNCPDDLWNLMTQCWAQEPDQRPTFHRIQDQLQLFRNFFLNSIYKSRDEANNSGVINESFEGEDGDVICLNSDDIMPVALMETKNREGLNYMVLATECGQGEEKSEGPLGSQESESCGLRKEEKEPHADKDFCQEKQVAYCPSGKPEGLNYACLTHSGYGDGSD

Row | Compound | IC50 [1] [nM] | inhibition at 1 µM [1] [%] | inhibition at 1 µM [2] [%] | IC50 [3] [nM] | inhibition at 1 µM [3] [%] | IC50 ([4]; Homo sapiens, HCC78, 72 h) [µM] | IC50 ([5]; Homo sapiens, NCI-H3122, 72 h) [µM] | further results
1 | CCCn1cc(-c2cnc(N)c(O[C@H](C)c3ccccc3)c2)cn1 [A04, (R)-3–(1-phenylethoxy)-5–(1-propyl-1H-pyrazol-4-yl)pyridin-2-amine] | 964 | 64 | 5 | 1540 | 37 | – | – | fold decrease in ROS1 potency compared to A02 ([1]; 963.9 nM vs. 99.5 nM): ~10 fold
2 | (R)-5–(6-amino-5–(1-(4'-fluoro-[1,1'-biphenyl]-2-yl)ethoxy)pyridin-3-yl)-1'-methylspiro[indoline-3,4'-piperidin]-2-one [C06] | – | – | – | – | – | – | – | ROS1 Inhibition (1μM) ([1]; average of two independent experiments, 1 µM): 98%; IC50 [1, 6]: 31.2 nM; c-MET Inhibition (1μM) ([2]; 1 µM): 58%; IC50 [4, 7]: 3.1 ± 0.3 µM; ALK Inhibition (1μM) ([3]; 1 µM): 91%; IC50 ([3]; read-out: ALK IC50): 214 nM; IC50 [5, 7]: 1.4 ± 0.1 µM
3 | C[C@@H](Oc1cc(-c2cccn2C)cnc1N)c1ccccc1F [A05, (R)-3–(1-(2-fluorophenyl)ethoxy)-5–(1-methyl-1H-pyrrol-2-yl)pyridin-2-amine] | – | 43 | -10 | – | 18 | 278 ± 53.1 | 168 ± 39.4 | –
4 | C[C@@H](Oc1cc(-c2ccnn2C)cnc1N)c1ccccc1 [A01, (R)-5–(1-methyl-1H-pyrazol-5-yl)-3–(1-phenylethoxy)pyridin-2-amine] | 173 | 101 | 5 | 407 | 90 | 28.7 ± 5.8 | 152 ± 44.4 | –
5 | C[C@@H](Oc1cc(-c2cnn(C)c2)cnc1N)c1ccccc1F [A06, (R)-3–(1-(2-fluorophenyl)ethoxy)-5–(1-methyl-1H-pyrazol-4-yl)pyridin-2-amine] | 83.1 | 100 | 11 | 231 | 73 | 16 ± 1.2 | 10.2 ± 0.1 | –
6 | C[C@@H](Oc1cc(-c2cnn(C)c2)cnc1N)c1ccccc1 [A02, (R)-5–(1-methyl-1H-pyrazol-4-yl)-3–(1-phenylethoxy)pyridin-2-amine] | 99.5 | 101 | 2 | 458 | 65 | 36.4 ± 3.7 | 149 ± 18.5 | –
7 | CCCn1cc(-c2cnc(N)c(O[C@H](C)c3ccccc3F)c2)cn1 [A08, (R)-3–(1-(2-fluorophenyl)ethoxy)-5–(1-propyl-1H-pyrazol-4-yl)pyridin-2-amine] | 120 | 91 | 22 | – | 58 | 13.9 ± 6.3 | 36.8 ± 2.5 | –
8 | (R)-5–(6-amino-5–(1-(4'-(trifluoromethoxy)-[1,1'-biphenyl]-2-yl)ethoxy)pyridin-3-yl)-1'-methylspiro[indoline-3,4'-piperidin]-2-one [C07] | – | – | – | – | – | – | – | ROS1 Inhibition (1μM) [1, 8]: 95%; IC50 [1, 6]: 73.6 nM; c-MET Inhibition (1μM) [2]: 18%; IC50 [4, 7]: 4.2 ± 0.2 µM; ALK Inhibition (1μM) [3]: 55%; IC50 ([3]; read-out: ALK IC50): 414 nM; IC50 [5, 7]: 2.4 ± 0.1 µM
9 | CCn1cc(-c2cnc(N)c(O[C@H](C)c3ccccc3F)c2)cn1 [A07, (R)-5–(1-ethyl-1H-pyrazol-4-yl)-3–(1-(2-fluorophenyl)ethoxy)pyridin-2-amine] | 81.4 | 87 | 18 | – | 69 | – | – | –
10 | (R)-5–(6-amino-5–(1-(4'-methyl-[1,1'-biphenyl]-2-yl)ethoxy)pyridin-3-yl)-1'-methylspiro[indoline-3,4'-piperidin]-2-one [C04] | – | – | – | – | – | – | – | ROS1 Inhibition (1μM) [1, 8]: 100%; IC50 [1, 6]: 16.5 nM; c-MET Inhibition (1μM) [2]: 43%; ALK Inhibition (1μM) [3]: 100%; IC50 ([3]; read-out: ALK IC50): 38.8 nM; IC50 [5, 7]: 2.4 ± 0.3 µM
11 | CCn1cc(-c2cnc(N)c(O[C@H](C)c3ccccc3)c2)cn1 [A03, (R)-5–(1-ethyl-1H-pyrazol-4-yl)-3–(1-phenylethoxy)pyridin-2-amine] | 317 | 85 | 14 | 454 | 65 | 50.5 ± 14 | 101 ± 22.8 | –
12 | (R)-5–(6-amino-5–(1-(3'-methyl-[1,1'-biphenyl]-2-yl)ethoxy)pyridin-3-yl)-1'-methylspiro[indoline-3,4'-piperidin]-2-one [C05] | – | – | – | – | – | – | – | ROS1 Inhibition (1μM) [1, 8]: 100%; IC50 [1, 6]: 77.3 nM; c-MET Inhibition (1μM) [2]: 59%; IC50 [4, 7]: 4.6 ± 0.1 µM; ALK Inhibition (1μM) [3]: 101%; IC50 ([3]; read-out: ALK IC50): 79.7 nM; IC50 [5, 7]: 2.4 ± 0.1 µM

The next lines start with results.

Row | IC50 [1] [nM] | inhibition at 1 µM [1] [%] | inhibition at 1 µM [2] [%] | IC50 [3] [nM] | inhibition at 1 µM [3] [%] | IC50 ([4]; Homo sapiens, HCC78, 72 h) [µM] | IC50 ([5]; Homo sapiens, NCI-H3122, 72 h) [µM] | Compound | further results
13 | – | 99 | 50 | 75.9 | 92 | 11.4 ± 0.5 | 8.5 ± 1.2 | CCn1cc(-c2cnc(N)c(O[C@H](C)c3ccccc3-c3ccccc3)c2)cn1 [B09, (R)-3–(1-([1,1'-biphenyl]-2-yl)ethoxy)-5–(1-ethyl-1H-pyrazol-4-yl)pyridin-2-amine] | –
14 | 65.7 | 99 | 8 | 217 | 99 | 16.9 ± 1.4 | 14.3 ± 3.6 | C[C@@H](Oc1cc(-c2ccnn2C)cnc1N)c1ccccc1-c1ccccc1 [B07, (R)-3–(1-([1,1'-biphenyl]-2-yl)ethoxy)-5–(1-methyl-1H-pyrazol-5-yl)pyridin-2-amine] | –
15 | 260 | 90 | 26 | 1160 | 42 | 21.3 ± 0.7 | 96.2 ± 6.9 | CCCn1cc(-c2cnc(N)c(O[C@H](C)c3ccccc3-c3ccnn3C)c2)cn1 [B05, (R)-3–(1-(2–(1-methyl-1H-pyrazol-5-yl)phenyl)ethoxy)-5–(1-propyl-1H-pyrazol-4-yl)pyridin-2-amine] | –
16 | 192 | 90 | 9 | – | 44 | 7.1 ± 0.7 | 24.8 ± 5 | C[C@@H](Oc1cc(-c2cccn2C)cnc1N)c1ccccc1-c1ccccc1 [B06, (R)-3–(1-([1,1'-biphenyl]-2-yl)ethoxy)-5–(1-methyl-1H-pyrrol-2-yl)pyridin-2-amine] | –
17 | 216 | 86 | 6 | – | 30 | 64.8 ± 4.5 | 689 ± 57.2 | C[C@@H](Oc1cc(-c2ccnn2C)cnc1N)c1ccccc1-c1ccnn1C [B02, (R)-5–(1-methyl-1H-pyrazol-5-yl)-3–(1-(2–(1-methyl-1H-pyrazol-5-yl)phenyl)ethoxy)pyridin-2-amine] | –
18 | 103 | 81 | 0 | – | 30 | 33.9 ± 1.8 | 186 ± 8.6 | C[C@@H](Oc1cc(-c2cccn2C)cnc1N)c1ccccc1-c1ccnn1C [B01, (R)-3–(1-(2–(1-methyl-1H-pyrazol-5-yl)phenyl)ethoxy)-5–(1-methyl-1H-pyrrol-2-yl)pyridin-2-amine] | –
19 | 148 | 98 | 60 | – | 82 | 7.7 ± 1.2 | 13.9 ± 1.2 | CCCn1cc(-c2cnc(N)c(O[C@H](C)c3ccccc3-c3ccccc3)c2)cn1 [B10, (R)-3–(1-([1,1'-biphenyl]-2-yl)ethoxy)-5–(1-propyl-1H-pyrazol-4-yl)pyridin-2-amine] | –
20 | 80.5 | – | 28 | – | 59 | 28 ± 4.5 | 128 ± 25.5 | CCn1cc(-c2cnc(N)c(O[C@H](C)c3ccccc3-c3ccnn3C)c2)cn1 [B04, (R)-5–(1-ethyl-1H-pyrazol-4-yl)-3–(1-(2–(1-methyl-1H-pyrazol-5-yl)phenyl)ethoxy)pyridin-2-amine] | –
21 | 374 | 74 | 21 | 286 | 88 | 52.7 ± 15.2 | 207 ± 40.7 | C[C@@H](Oc1cc(-c2cnn(C)c2)cnc1N)c1ccccc1-c1ccnn1C [B03, (R)-5–(1-methyl-1H-pyrazol-4-yl)-3–(1-(2–(1-methyl-1H-pyrazol-5-yl)phenyl)ethoxy)pyridin-2-amine] | –
